{"source": "patent US20110206612A1", "about": "“NOVEL SCREENS TO IDENTIFY AGENTS THAT MODULATE RETINAL BLOOD VESSEL FUNCTION AND PERICYTE FUNCTION AND DIAGNOSTIC AND THERAPEUTIC APPLICATION THEREFOR” (UNIVERSITY OF TECHNOLOGY, SYDNEY, priority 2002, published 2011)", "key": {"[1]": {"system": "pericytes stimulated by PACAP", "experiment": "inhibition of PACAP-induced relaxation of pericytes on silicone substrate", "type": "cell-based", "method": "The contractile state of the pericyte was quantified by counting the number of wrinkles (N) and the length of each wrinkle (l) in the thin shin sheet of silicone. From these observations an index of contractility (Ci) was developed from […]. An experiment to determine the effect of vasoactive agents was conducted by first quantifying Ci with the pericyte in physiological buffer (“control”). The Ci was quantified after exposing the pericytes to a vasoactive agent and allowing the pericyte to reach a steady-state level of contractility, which usually took 10 minutes. The effect of the vasoactive agent was determined by dividing by the Ci in the control condition and multiplying by 100 to obtain an index of effect (Ie,%) that was either less than 100 (pericyte relaxed relative to control) or greater than 100 (pericyte contracted relative to control). As a further control, incubations with buffer alone for the complete duration of exposure to each vasoactive agent were performed in conjunction with each experiment.\nThe present inventors further identified protein kinase A (PKA) as being affected by the increase in cAMP following the binding of PACAP or VIP. For this purpose cells were grown on silicone substrate and contacted by a 10^−8 M concentration of PACAP.\nThe present inventors have also shown that the relaxing effect of PACAP on pericyte contraction was in part mediated by the intracellular pathway that mobilises Ca^2+ from intracellular stores."}, "retinal pericytes": {"system": "retinal pericytes", "experiment": "cells", "settings": "for effect on contractile state of retinal pericytes (in words): pericytes on silicone substrate, 10 minutes per concentration", "method": "A small volume of dimethylpolysiloxane (Sigma Chemical Co.) of either 60,000 cps (DMPS-60M) or 12,500 cps (DMPS-12M) viscosity was applied to 12 mm diameter glass cover slips. In some cases an intermediate viscosity dimethylpolysiloxane (30,000 cps) was prepared by blending 54% by weight of 60,000 cps dimethylpolysiloxane with 46% by weight of 12,500 cps dimethylpolysiloxane. The coated cover-slip was heated for 2 seconds using a Bunsen burner to induce cross-linking of the surface of the dimethylpolysiloxane and formation of a thin silicone rubber sheet bonded to the cover slip. After preparation, the cover slips were placed in 24-well tissue culture dishes and sterilised by UV irradiation overnight.\nPericytes from primary cultures (first passage) were plated on the cover slips in DMEM supplemented with 10% FCS.\nThe response of the cells to the antagonists was evaluated using phase contrast microscopy at room temperature. […] Cells were identified as relaxed when the tension wrinkles associated with them diminished in size, and completely relaxed when the wrinkles disappeared. Conversely, a pericyte contracted when there was an increase in the number and length of the wrinkles associated with the pericyte. During each experiment, an image of the pericytes was captured (videocamera and framegrabber) by the computer every minute. The wrinkles were analysed after the experiment from these captured images.\nIn each of the experiments, the length of each clearly discerned wrinkle associated with the cell was measured 3 times, and the average of the lengths was tabulated. The two ends of a wrinkle were determined by the contrast difference from the background on the picture. The contrast settings on the computer, videocamera or framegrabber were set at the commencement of an experiment and then not changed during the course of an experiment. Similarly, the focus of the microscope was set at the commencement of the experiment and then not changed during the course of an experiment. The depth (level) of solution in the bath was also kept constant, by aspirating and injecting each new solution at the same rate. Thus the only change in the image of the wrinkle (contrast, length) was due to the tension induced in the silicone substrate by the pericyte. The wrinkles during each experimental condition were counted from the photographs with help of a Zeiss videoplan.\nThe contractile state of the pericyte was quantified by counting the number of wrinkles (N) and the length of each wrinkle (l) in the thin shin sheet of silicone. From these observations an index of contractility (Ci) was developed from […]. An experiment to determine the effect of vasoactive agents was conducted by first quantifying Ci with the pericyte in physiological buffer (“control”). […] As a further control, incubations with buffer alone for the complete duration of exposure to each vasoactive agent were performed in conjunction with each experiment.\nFor this purpose cells were grown on silicone rubber. On the day of experiment the cells were rinsed with HEPES-buffered solution for 20 min at room temperature. Then the pericytes were exposed to norepinephrine (N5785, Sigma, USA) at different concentrations (10^−6M, 10^−5M, 10^−4 M) by a rapid exchange of the entire solution. The pericytes were exposed to each new drug concentration for a total of 10 minutes, with an image of the pericytes taken every 1 min."}}, "note": "pEC50: −log10 of the molar value. Like-named read-outs stand apart in the source and are kept apart here."}
{"smiles": "Nc1ncnc2c1ncn2[C@@H]1O[C@@H]2COP(O)(=S)O[C@H]2[C@H]1O", "note": "(single isomer, unassigned) [Rp-cAMPS, adenosine 3′,5′-cyclic monophosphothioate, Rp-isomer]", "values": [{"measurement": "pEC50", "setting": "[1]; 10^−8 M PACAP, 10, 30, 100 μM added sequentially, 10 minutes each, FIG. 6, read-out: EC50 of inhibition of the relaxing effect of PACAP", "result": 4.59}]}
{"smiles": "O=S(=O)(NCCNCC=Cc1ccc(Br)cc1)c1cccc2cnccc12", "note": "[H-89, N-(2-[p-bromocinnamylamino]-ethyl)-5-isoquinolinesulfonamid-e]", "values": [{"measurement": "effect on the relaxing effect of PACAP", "setting": "[1]; 10^−8 M PACAP, inhibitor at 0.3 μM", "result": "inhibited the relaxing effect"}]}
{"smiles": "O=C(O)c1ccccc1Nc1ccccc1", "note": "[N-phenylanthranilic acid]", "values": [{"measurement": "effect on contractile state of retinal pericytes (in words)", "setting": "retinal pericytes", "result": "can influence the contractile state of retinal pericytes"}]}
{"smiles": "NC[C@H](O)c1ccc(O)c(O)c1", "note": "[NE, norepinephrine]", "values": [{"measurement": "effect on contractile state of retinal pericytes (in words)", "setting": "retinal pericytes", "result": "contracting in a dose-dependent manner"}, {"measurement": "pEC50", "setting": "retinal pericytes; read-out: EC50 of pericyte contraction of silicone substrate", "result": 5.10}, {"measurement": "concentration causing contraction of pericytes", "setting": "retinal pericytes; retinal pericytes, FIG. 3", "result": "greater than 10^−6 M"}, {"measurement": "concentration giving maximum enhancement of contractile state of the pericytes", "setting": "retinal pericytes; retinal pericytes, FIG. 3", "result": "10^−4 M"}]}
{"smiles": "C[C@@H](C(=O)O)c1ccc(-c2ccccc2)c(F)c1", "note": "[R-flurbiprofen, flurbiprofen]", "values": [{"measurement": "effect on contractile state of retinal pericytes (in words)", "setting": "retinal pericytes", "result": "can influence the contractile state of retinal pericytes"}]}
{"smiles": "COc1ccc2c(c1)CC[C@@H]1[C@@H]2CC[C@]2(C)[C@@H](NCCCCCCN3C(=O)C=CC3=O)CC[C@@H]12", "note": "[U73122, 1-[6-([(17β)-3-Methoxyestra-1,3,5(10)-trien-17-yl]amino)hexyl]-1H-py-rrole-2,2-dione]", "values": [{"measurement": "effect on PACAP-induced relaxation of pericytes", "setting": "[1]; inhibitor at 10 μM", "result": "antagonist of the PACAP-induced relaxation of pericytes"}]}
{"smiles": "CC[C@H](C)[C@H](NC(=O)[C@H](CO)NC(=O)[C@H](CC(N)=O)NC(=O)[C@H](CC(C)C)NC(=O)[C@H](Cc1ccc(O)cc1)NC(=O)[C@H](CCCCN)NC(=O)[C@H](CCCCN)NC(=O)[C@@H](NC(=O)[C@H](C)NC(=O)[C@H](CCSC)NC(=O)[C@H](CCC(N)=O)NC(=O)[C@H](CCCCN)NC(=O)[C@H](CCCNC(=N)N)NC(=O)[C@H](CC(C)C)NC(=O)[C@H](CCCNC(=N)N)NC(=O)[C@@H](NC(=O)[C@H](Cc1ccc(O)cc1)NC(=O)[C@H](CC(N)=O)NC(=O)[C@H](CC(=O)O)NC(=O)[C@@H](NC(=O)[C@H](Cc1ccccc1)NC(=O)[C@@H](NC(=O)[C@H](C)NC(=O)[C@H](CC(=O)O)NC(=O)[C@H](CO)NC(=O)[C@@H](N)Cc1c[nH]cn1)C(C)C)[C@@H](C)O)[C@@H](C)O)C(C)C)C(=O)N[C@@H](CC(C)C)C(=O)N[C@@H](CC(N)=O)C(N)=O", "note": "[VIP, vasoactive intestinal polypeptide]", "values": [{"measurement": "pEC50", "setting": "retinal pericytes; read-out: EC50 concentration, effect on contractility of pericytes (relaxation), contractility index below 100 = relaxed, data averaged from cells, FIGS. 4, 5", "result": 7.32}]}
{"smiles": "O=C(O)c1ccccc1Nc1cccc(C(F)(F)F)c1", "note": "[flufenamic acid]", "values": [{"measurement": "effect on contractile state of retinal pericytes (in words)", "setting": "retinal pericytes", "result": "can influence the contractile state of retinal pericytes"}]}
